The source of these data is patent US8703736B2, “Therapeutic target for pancreatic cancer cells” (The Translational Genomics Research Institute, priority 2011, dated 2014).

SMILES strings stand for the structures. Read-outs that look alike come from different tables or passages of the source. Bounds are passed on as bounds.

Data set [1] relates to co-culture of human pancreatic cancer-derived myofibroblasts and SU8686 cells. The experiment in a line: Co-culture stained for aSMA and collagen 1 (FIG. 7). It counts as cell-based. Conditions: 72 hours.
In data set [2] the test system is co-culture of human pancreatic cancer-derived fibroblasts and SU8686 cells. The data set is described as follows: Co-culture stained for cytokeratin and αSMA (FIG. 12). It counts as cell-based. The note with it: 72 hours. An excerpt:
Fasudil inhibits stellate cell proliferation and function: The effects of fasudil on the proliferation and expansion of the stromal compartment in a co-culture of human pancreatic cancer-derived fibroblasts and SU8686 cells were compared. […] Subsequently, cells were fixed and stained for the epithelial cell marker, cytokeratin, in green, and αSMA, in red.

In data set [3] the test system is Collagen 1 mRNA in cultured human stellate cells. The data set is described as follows: Quantitative PCR analysis of Collagen 1 mRNA levels (FIG. 11). It is filed as cell-based. Conditions: highest concentration of fasudil (100 μm). On the procedure:
Fasudil inhibits collagen expression in cultured human stellate cells: The analysis of collagen expression in cultured human stellate cells exposed to Fasudil was carried out using quantitative PCR analysis of Collagen 1 mRNA levels.

The test system of the next data set is CW1. The data set is described as follows: Drug dose-response curves, cell proliferation, CW1. Conditions: Homo sapiens, read-out: ROCK1 inhibition, IC50 values. It is filed as cell-based. As for the experimental part: (§1) Efficacy of ROCK inhibition evaluated by drug dose-response curves: The small molecule ROCK1 inhibitors, fasudil and Y27632, were analyzed for their effects in pancreatic cancer cell lines. Drug dose-response curves were created to assess the efficacy of ROCK inhibition at 72 hours of drug exposure. FIG. 5A presents the drug dose-response curves for fasudil exposure in MiaPaca, Su8686, Panc-1 and CW1 cell line cells. FIG. 5B presents the drug dose-response curves for Y-27632 exposure in the same above mentioned cell lines. Gemcitabine, a nucleoside analog, replaces one of the building blocks, cytidine, during DNA replication and thus arrests tumor growth, which leads to cell death. Gemcitabine is shown for reference as illustrated in FIG. 5C.

Data set [4] relates to Panc-1 cells. The experiment in a line: SRB (Sulphorhodamine) cell viability assay with fasudil. It is filed as cell-based, human. As for the experimental part: To further study the effects of fasudil at these concentrations on growth, an SRB (Sulphorhodamine) cell viability assay was performed. […] In both FIGS. 6A and 6B, “UT” stands for untreated; and “SFM” stands for serum-free media.

For data set [5], the system named is collagen 1 in CW1 myofibroblasts and SU8686 cells. The experiment in a line: Collagen 1 expression in single and co-cultures, dot blot (FIG. 8). It is filed as cell-based, human. On the procedure:
Fasudil reduces collagen synthesis in co-cultured pancreatic cells: The effects of fasudil on the expression of collagen 1 in single and co-cultures of human myofibroblasts and SU8686 cells were examined. These cells were seeded and then treated with fasudil for 72 hours at the concentrations indicated. Treatment conditions are shown at top of the figure panel, and standard curve concentrations are shown below the figure panel (FIG. 8A). Calibrated collagen concentrations were shown in FIG. 8B (20 μg total protein loaded per sample). […] Fasudil inhibits collagen expression in cultured human stellate cells: The analysis of collagen expression in cultured human stellate cells exposed to Fasudil was carried out using quantitative PCR analysis of Collagen 1 mRNA levels.

In a further data set the test system is MiaPaca2. The data set is described as follows: Drug dose-response curves, cell proliferation, MiaPaca2. It is filed as cell-based. The note with it: Homo sapiens, read-out: ROCK1 inhibition, IC50 values. On the procedure:
as §1

A further data set concerns Panc-1. The experiment in a line: Drug dose-response curves, cell proliferation, Panc-1. It is filed as cell-based. Conditions: Homo sapiens, read-out: cell proliferation, IC50 values. On the procedure: as §1
The subject of a further data set is Su8686. The experiment in a line: Drug dose-response curves, cell proliferation, Su8686. It is filed as cell-based. Conditions: Homo sapiens. As for the experimental part:
as §1

The next data set has as its system PDA cell proliferation. The experiment in a line: Inhibition of PDA cell proliferation (summary over cell lines). It counts as cell-based. Conditions: Homo sapiens; range over cell lines of TABLE 2; 72 hours; read-out: IC50s range, inhibition of PDA cell proliferation. On the procedure:
as §1

Data set [6] relates to Panc-1 cells. The data set is described as follows: Modified Boyden Chamber Assay, cell migration. It is filed as cell-based, human. Conditions: at both 500 μM and 20 μM.
[7] abbreviates: CW1 cell line, 72 hours of drug exposure.
[8] abbreviates: MIA PaCa-2, MiaPaca2 cell line, 72 hours of drug exposure.
Where [9] appears, read: Panc-1 cell line, 72 hours of drug exposure, read-out: ROCK1 inhibition, IC50 values.
Where [10] appears, read: SU.86.86, Su8686 cell line, 72 hours of drug exposure, read-out: ROCK1 inhibition, IC50 values.

With `O=S(=O)(c1cccc2cnccc12)N1CCCNCC1` [Fasudil, 5-(1,4-diazepan-1-ylsulfonyl)isoquinoline], in [1] (50 μM, 25 μM, and 12 μM), the “inhibition of aSMA and collagen 1 expressing myofibroblasts” value was “selectively inhibited”. Also, the “cell proliferation of both cancer cells and myofibroblasts relative to untreated” value in data set [1] (100 μM) is on record as “significant reduction in cell proliferation”. In addition, the “inhibition of aSMA expressing cells (stellate cells)” value in data set [2] (50 μM, 25 μM, and 12 μM) was “selectively inhibited”. Besides, the “cell proliferation of both cancer cells and stellate cells relative to untreated” value in [2] (100 μM) is given as “significant reduction in cell proliferation”. For the same compound, the “collagen expression (Collagen 1 mRNA)” value in data set [3] was “three-fold decrease in collagen expression”. Besides, the IC50 with CW1 (setting [7]) was 66 µM; in the data set with MiaPaca2 (setting [8]), 55 µM; in the data set with Panc-1 (setting [9]), above 100 µM; in the data set on Su8686 (setting [10]) it was 71.2 µM; in the data set with PDA cell proliferation, 6 to 71 µM. In the data set with Panc-1 cells [4] (20 μM), the cytotoxicity result is recorded as “no significant cytotoxicity”. The compound also showed a cell survival in the data set with Panc-1 cells [4] (500 μM, 24 hours) of 50.3%. For the same compound, the “collagen synthesis relative to the untreated sample” value in data set [5] (100 μM, 50 μM, and 25 μM, 72 hours) is recorded as “significant reduction in collagen synthesis”. Moreover, the “collagen expression, dot blot on protein lysates” value in [5] (monocultured stellate cells (CW1) and co-cultured tumor/stellate cells (CW1/SU8686), 6-100 μm) is on record as “Decreased collagen expression”. Moreover, the “migrating cells relative to serum (chemoattractant) containing media control” value in the data set on Panc-1 cells [6] is “significant reduction in migrating cells”.
Regarding `Nc1ccn([C@@H]2O[C@H](CO)[C@@H](O)C2(F)F)c(=O)n1` [Gemcitabine], the IC50 is above 100 µM in the data set with CW1 (setting [7]), 0.056 µM in the data set with MiaPaca2 (setting [8]), above 100 µM in the data set with Panc-1 (setting [9]) and 0.017 µM with Su8686 (setting [10]).
Regarding `CC(N)C1CCC(C(=O)Nc2ccncc2)CC1` (stereo not drawn) [Y27632, 4-(1-aminoethyl)-N-pyridin-4-yl-cyclohexane-1-carboxamide], the IC50 was 6.4 µM in the data set with CW1 (72 h); 6.8 µM with MiaPaca2 (MIA PaCa-2, 72 h); above 100 µM with Panc-1 (PANC-1, 72 h); 27.9 µM with Su8686 (SU.86.86, 72 h); 6 to 71 µM with PDA cell proliferation.
